Experimental data taken from publication PMC4691232 (Chemistry & Biology, 2015).
“Also recorded” adds a separate entry of the source.

Assays:
WcbL [1] = target: T1, WcbL (Burkholderia pseudomallei, UniProt H7C745); experiment: biochemical
WcbL [2] = target: T1, WcbL; experiment: biochemical; assay type: binding

T1 sequence (H7C745 1-346): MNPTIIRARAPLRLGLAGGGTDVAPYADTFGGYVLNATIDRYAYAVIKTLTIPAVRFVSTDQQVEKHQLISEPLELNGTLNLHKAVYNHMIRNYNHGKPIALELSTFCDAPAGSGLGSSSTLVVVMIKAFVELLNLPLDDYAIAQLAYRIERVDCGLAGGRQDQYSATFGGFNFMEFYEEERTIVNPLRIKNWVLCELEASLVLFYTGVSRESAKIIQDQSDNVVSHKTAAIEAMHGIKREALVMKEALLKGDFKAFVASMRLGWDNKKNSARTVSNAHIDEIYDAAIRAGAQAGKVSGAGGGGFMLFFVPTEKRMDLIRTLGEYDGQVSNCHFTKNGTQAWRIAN

N#Cc1coc2ccccc2c1=O [3-cyanochromone]
Ki (WcbL [1]): 10 ± 6 µM

N#Cc1coc2c(Cl)cc(Cl)cc2c1=O [6,8-dichloro-3-cyanochromone]
activity against WcbL (structure-activity relationship study, in words) (WcbL [1]): significantly weaker activity; also recorded: far less potent inhibitor

N#Cc1coc2ccc(Br)cc2c1=O [6-bromo-3-cyanochromone]
Ki (WcbL [1]): 12 ± 5 µM | activity against WcbL (structure-activity relationship study, in words) (WcbL [1]): very similar to those of the original compound

Nc1ncnc2c1ncn2[C@@H]1OC(COP(=O)(O)OP(=O)(O)OP(=O)(O)O)[C@@H](O)[C@H]1O (stereo partly shown) [ATP]
Kd (WcbL [2]): 33 ± 7 µM | cooperativity coefficient n (DSF binding) (WcbL [2]): 0.6 ± 0.06

O=P(O)(O)OCC(O)C1OC(O)C(O)C(O)C1O [M7P, D-manno-α,β-D-heptose-7-phosphate]
Kd (WcbL [2]): 968 ± 37 µM | cooperativity coefficient n (DSF binding) (WcbL [2]): did not show any cooperativity

O=Cc1coc2ccccc2c1=O [chromone-3-carboxaldehyde]
activity against WcbL (structure-activity relationship study, in words) (WcbL [1]): significantly weaker activity; also recorded: much weaker IC50

O=c1ccoc2ccccc12 [chromone]
activity against WcbL (structure-activity relationship study, in words) (WcbL [1]): significantly weaker activity; also recorded: does not inhibit WcbL
